Measured values: patent US7988972B2, “Immunoreactive peptides from Epstein-Barr virus” (Ortho-Clinical Diagnostics, Inc., priority 1993, dated 2011)

Columns and labels:
[1] = tested on: antibodies to peptides 50.10 (EA-D) and 17.1 (EA-R) in sequential sera; assay: IgG ELISA on sequential sera of a patient with acute infectious mononucleosis; assay type: binding, human; details: sera at 1.20 dilution, (+) >0.25
Description: The early antigen D-R transition was followed in a patient during a course of acute infectious mononucleosis. Antibodies to peptides 50.10 (EA-D) and 17.1 (EA-R) were detected by ELISAs on specimens collected over a six month duration. […] Therefore, the peptides of the invention are useful for monitoring the course of EBV-associated disease in a patient.

[2] = tested on: EA reactive antibody (IgG) in infectious mononucleosis (IM) sera; assay: ELISA, EA peptides with EBV infectious mononucleosis sera; assay type: binding, human; details: for ELISA result, peptides with and without extensions: EA positive EBV IM acute serum; for O.D.: 420 nm
Method: ELISA. The ELISA for measuring specific antibodies to p17, p50 or to the synthetic peptides was performed as previously described in detail (Luka et al., J. Immunol. Methods, 67:145-156, 1984). Aliquots of different antigen concentrations were diluted in 0.5M Na2CO3 buffer, pH 9.5, added to wells in polystyrene microtiter plates (Linbro) and the plates incubated overnight at 4° C. Following this incubation period, the plates were washed 5× with Tris-HCl, pH 7.4, containing 0.05% Tween 20, 50 mM NaCl and 100 mg per liter albumin (Sigma) and dried for 20 minutes at room temperature. The plates were screened with different anti-EA-R or EA-D antibody positive human sera and the monoclonal antibody to p17 or p50 to identify the optimal concentration of antigen to be used in the serological studies. Alkaline-phosphatase-labelled goat anti-human IgG (Sigma) or goat anti-mouse IgG (Sigma) was used as the indicator system.
For the testing of human sera for antibodies to native p17, p50 or to the synthetic peptides, sera were diluted 1:10 in ELISA buffer, added in 0.1 ml volumes to wells coated with optimal concentrations of antigen and the plates were incubated for 60 minutes at room temperature. After 4 washes with ELISA buffer, 100 μl of alkaline phosphatase-labelled goat anti-human IgG in ELISA buffer were added to each well and the plates were incubated at room temperature for 1 hour. Following four more washes in buffer, the enzyme reaction was performed by dissolving 1 mg per ml of Sigma alkaline phosphatase substrate in 1M diethanolamine buffer, pH 10.4, containing 1 mM MgCl2 and 0.1 mM ZnCl2, and 100 μl of the mixture was then added to each well. The reaction was allowed to proceed for 30 minutes at 37° C. and then the plates were screened directly with a microplate reader, TITERTEK MULTISKAN MC (Flow), at 420 nm. Readings above 0.1 which was 2× the background noted with antibody-negative sera were considered positive reactions.
When the entire 50.10 peptide was tested with 1M sera, 24/32 or 75% of the sera contained EA-D reactive antibody (IgG) (Table 4).
Serological reactivity of EA peptides p17.1 and p50.1 which contained additional amino acids on their amino and carboxy termini was tested on EBV IM acute sera which was EA positive. The ELISA results shown in Table 5 indicate that the additional amino acids improved reactivity for both EA peptides.
Immunofluorescence assays (IFA) were performed as described by Henle, et al. (Int. J. Cancer, 8:272-282, 1971). Western blot analysis was done by methods commonly used in the art (See for example, Coligan, et al., Current Protocols in Immunology, Wiley Interscience, 1991, Unit 12). Samples of EBV-infected cell lysates (P3HR-1) were tested with human whole antiserum from positive humans (Pearson, et al., Virology, 160:151-161, 1987). A comparison was made between EA serology by IFA, using the EA-D 50.1 peptide antisera, and ELISA serology using 50.1 peptide (see Example 2).

[3] = 32 IM sera, values >0.5 positive (O.D. 420 nm)

## ETFTETWNRFITHTE [p17.1, synthetic peptide from 17 Kd early antigen (EA-R) region of EBV]
[1]; serum no. 9817, May 26, 1988
  IgG ELISA O.D. reading: 0.158
[1]; serum no. 9820, May 31, 1988
  IgG ELISA O.D. reading: 0.106
[1]; serum no. 9829, Jun. 07, 1988
  IgG ELISA O.D. reading: 0.135
[1]; serum no. 9941, Jun. 20, 1988
  IgG ELISA O.D. reading: 0.169
[1]; serum no. 9983, Jun. 27, 1988
  IgG ELISA O.D. reading: 0.645
[1]; serum no. 10064, Jul. 18, 1988
  IgG ELISA O.D. reading: 0.842
[1]; serum no. 10237, Aug. 29, 1988
  IgG ELISA O.D. reading: 0.260
[1]; serum no. 10271, Sep. 20, 1988
  IgG ELISA O.D. reading: 0.231
[1]; serum no. 10488, Oct. 21, 1988
  IgG ELISA O.D. reading: 0.217
[1]; serum no. 10546, Nov. 15, 1988
  IgG ELISA O.D. reading: 0.193
[2]; [3]
  % Positive: 38%
  IM sera positive / tested: 12/32
[2]; sample no. 2241
  ELISA result, peptides with and without extensions: 0.282
[2]; sample no. 12498
  ELISA result, peptides with and without extensions: 0.637
[2]; sample no. 12836
  ELISA result, peptides with and without extensions: 0.692
[2]; IM serum sample no. 2241
  SCORE: − (Values >0.5 were considered positive (O.D. readings at 420 nm).)
[2]; IM serum sample no. 11984
  SCORE: + (Values >0.5 were considered positive (O.D. readings at 420 nm).)
  O.D.: 0.542
[2]; IM serum sample no. 12005
  SCORE: + (Values >0.5 were considered positive (O.D. readings at 420 nm).)
  O.D.: 0.981
[2]; IM serum sample no. 12288
  SCORE: + (Values >0.5 were considered positive (O.D. readings at 420 nm).)
  O.D.: 0.700
[2]; IM serum sample no. 12407
  SCORE: + (Values >0.5 were considered positive (O.D. readings at 420 nm).)
  O.D.: 0.787
[2]; IM serum sample no. 12409
  SCORE: + (Values >0.5 were considered positive (O.D. readings at 420 nm).)
  O.D.: 0.592
[2]; IM serum sample no. 12418
  SCORE: − (Values >0.5 were considered positive (O.D. readings at 420 nm).)
  O.D.: 0.463
[2]; IM serum sample no. 12498
  SCORE: + (Values >0.5 were considered positive (O.D. readings at 420 nm).)
[2]; IM serum sample no. 12502
  SCORE: + (Values >0.5 were considered positive (O.D. readings at 420 nm).)
  O.D.: 0.924
[2]; IM serum sample no. 12587
  SCORE: + (Values >0.5 were considered positive (O.D. readings at 420 nm).)
  O.D.: 0.571
[2]; IM serum sample no. 12600
  SCORE: − (Values >0.5 were considered positive (O.D. readings at 420 nm).)
[2]; IM serum sample no. 12611
  SCORE: − (Values >0.5 were considered positive (O.D. readings at 420 nm).)
  O.D.: 0.259
[2]; IM serum sample no. 12801
  SCORE: + (Values >0.5 were considered positive (O.D. readings at 420 nm).)
  O.D.: 0.601
[2]; IM serum sample no. 12828
  SCORE: − (Values >0.5 were considered positive (O.D. readings at 420 nm).)
  O.D.: 0.375
[2]; IM serum sample no. 12829
  SCORE: − (Values >0.5 were considered positive (O.D. readings at 420 nm).)
  O.D.: 0.257
[2]; IM serum sample no. 12836
  SCORE: + (Values >0.5 were considered positive (O.D. readings at 420 nm).)
[2]; IM serum sample no. 12837
  SCORE: + (Values >0.5 were considered positive (O.D. readings at 420 nm).)
  O.D.: 0.523
[2]; IM serum sample no. 12840
  SCORE: − (Values >0.5 were considered positive (O.D. readings at 420 nm).)
  O.D.: 0.488
[2]; IM serum sample no. 12888
  SCORE: − (Values >0.5 were considered positive (O.D. readings at 420 nm).)
  O.D.: 0.423
[2]; IM serum sample no. 12889
  SCORE: + (Values >0.5 were considered positive (O.D. readings at 420 nm).)
  O.D.: 0.574
[2]; IM serum sample no. 12892
  SCORE: − (Values >0.5 were considered positive (O.D. readings at 420 nm).)
  O.D.: 0.430
[2]; IM serum sample no. 12893
  SCORE: + (Values >0.5 were considered positive (O.D. readings at 420 nm).)
  O.D.: 0.592
[2]; IM serum sample no. 12899
  SCORE: + (Values >0.5 were considered positive (O.D. readings at 420 nm).)
  O.D.: 0.825
[2]; IM serum sample no. 12900
  SCORE: − (Values >0.5 were considered positive (O.D. readings at 420 nm).)
  O.D.: 0.264
[2]; IM serum sample no. 13075
  SCORE: − (Values >0.5 were considered positive (O.D. readings at 420 nm).)
  O.D.: 0.154
[2]; IM serum sample no. 13419
  SCORE: + (Values >0.5 were considered positive (O.D. readings at 420 nm).)
  O.D.: 0.655
[2]; IM serum sample no. 13637
  SCORE: + (Values >0.5 were considered positive (O.D. readings at 420 nm).)
  O.D.: 0.719
[2]; IM serum sample no. 13769
  SCORE: + (Values >0.5 were considered positive (O.D. readings at 420 nm).)
  O.D.: 0.757
[2]; IM serum sample no. 13929
  SCORE: − (Values >0.5 were considered positive (O.D. readings at 420 nm).)
  O.D.: 0.332
[2]; IM serum sample no. 14043
  SCORE: − (Values >0.5 were considered positive (O.D. readings at 420 nm).)
  O.D.: 0.095
[2]; IM serum sample no. 14128
  SCORE: − (Values >0.5 were considered positive (O.D. readings at 420 nm).)
  O.D.: 0.434
[2]; IM serum sample no. 14131
  SCORE: − (Values >0.5 were considered positive (O.D. readings at 420 nm).)
  O.D.: 0.182
